Data reported in US20070004735A1, “Method for inhibiting the replication of herpes viruses” (priority 2003, published 2007).

Key:
[1] = system: HCMV AD169 clone with mutation in UL86 A1226T; test: Susceptibility (IC50) of resistant HCMV AD169 clone A1226T; type: cell-based, Human cytomegalovirus; conditions: Human betaherpesvirus 5, read-out: IC 50, A1226T
Method: The test compounds are employed as 50 millimolar (mM) solutions in dimethyl sulfoxide (DMSO). Ganciclovir®, Foscarnet® and Cidofovir® are used as reference compounds. After addition of in each case 2 μl of the 50, 5, 0.5 and 0.05 mM DMSO stock solutions to 98 μl portions of cell culture medium in row 2 A-H for duplicate determinations, 1:2 dilutions are carried out with 50 μl portions of medium up to row 11 of the 96-well plate. The wells in rows 1 and 12 each contain 50 μl of medium. 150 μl of a suspension of 1×10^4 cells (human prepuce fibroblasts [NHDF]) are then pipetted into each of the wells (row 1=cell control) and, in rows 2-12, a mixture of HCMV-infected and uninfected NHDF cells (M.O.I.=0.001-0.002), i.e. 1-2 infected cells per 1000 uninfected cells. Row 12 (without substance) serves as virus control. The final test concentrations are 250-0.0005 μM. The plates are incubated at 37° C./5% CO2 for 6 days, i.e. until all the cells are infected in the virus controls (100% cytopathogenic effect [CPE]). The wells are then fixed and stained by adding a mixture of formalin and Giemsa's dye (30 minutes), washed with double-distilled water and dried in a drying oven at 50° C. The plates are then assessed visually using an overhead microscope (plaque multiplier from Technomara).
For this purpose, NHDF cells are seeded in tissue culture vessels. 5×10^3 cells per well are seeded in 96-well plates and infected with cell-free HCMV AD169 with an moi of 0.03. The infections are cultivated under substance pressure which corresponds to 10 times the IC50 of the substance. Preferably, 30-100 96-well plates inoculated as described are made up. […] Finally, viral stocks are produced as described above and frozen. Serial ten-fold dilution of the virus-infected cells or of the cell culture supernatant of the virus-infected cells is followed by determination of the titer on 24-well plates of confluent NHDF cells after vital staining with neutral red. Finally, the susceptibility to various substances (IC50 determination) is determined as described above.
The HCMVAD169 mutants selected as described above are grown in vitro on human embryonic prepuce fibroblasts (NHDF cells) under substance pressure (10×IC50 HCMVAD169). After infection of the NHDF cells with a multiplicity of infection (M.O.I) of 0.01, the virus-infected cells are harvested 5-10 days later, and the total DNA is isolated from these cells with the aid of established standard methods (e.g. phenol extraction and ethanol precipitation). Qiagen Sequencing Services (Qiagen, Hilden) determined, after amplification of the viral UL86 gene by PCR, the DNA sequence, which was then transcribed into protein sequence. Compared with the initial strain HCMV AD169, the differences shown in table 2 were detectable in the protein sequence of the major capsid protein (UL86) in the resistant viruses. The IC50 values [μM] of various substances on these mutants compared with the initial strain are likewise indicated. (n.d.=not measured). […] Depending on the nature of the substance, certain mutations lead to various extents of resistance.

| SMILES | melting point [°C] | IC50 [1] [µM] |
| --- | --- | --- |
| CC1(C)CC(=O)NN=C1c1cccc(NC(=O)Nc2ccc(F)cc2F)c1 [Example 1, N-(2,4-Difluorophenyl)-N′-[3-(4,4-dimethyl-6-oxo-1,4,5,6-tetrahydro-3-pyridazinyl)phenyl]urea] | 213 | > 125 |
| CC1(C)CC(=O)NN=C1c1cc(NC(=O)Nc2cc(F)ccc2F)ccc1O [Example 2, N-(2,5-Difluorophenyl)-N′-[3-(4,4-dimethyl-6-oxo-1,4,5,6-tetrahydro-3-pyridazinyl)-4-hydroxyphenyl]urea] |  | > 125 |
| CCCCC(=O)Nc1ccc(NC(=O)Nc2ccc(F)c(Cl)c2)cc1 [Example 4, N-[4-({[(3-Chloro-4-fluorophenyl)amino]carbonyl}amino)phenyl]pentanamide] |  | 0.8 |
